In ChEMBL document CHEMBL4396864, “Small-Molecule Modulators of the Hypoxia-Inducible Factor Pathway: Development and Therapeutic Applications” (J Med Chem, 2019):
pIC50, pKd: −log10 of the molar value.

Assays:
[1] = target: T1, CREB-binding protein/Histone acetyltransferase p300 (Homo sapiens, UniProt Q09472+Q92793); assay: Inhibition of GST-tagged p300 (unknown origin)/CBP (unknown origin) protein-protein interaction; type: protein assay
[2] = target: Hypoxia-inducible factor 1-alpha (Homo sapiens, UniProt Q16665); assay: Inhibition of HIF-1alpha in human U373 cells; type: cell-based, U-373MG ATCC
[3] = target: Histone acetyltransferase p300 (Homo sapiens, UniProt Q09472); assay: Binding affinity to p300 (unknown origin)
[4] = target: T1, CREB-binding protein/Histone acetyltransferase p300; assay: Inhibition of GST-tagged p300 (unknown origin)/CBP (unknown origin) protein-protein interaction by fluorescence polarization assay
[5] = tested on: Hep 3B2; assay: Downregulation of VEGF protein level in human Hep3B cells after 8 hrs by ELISA; type: functional, cell-based

Histone acetyltransferase p300, sequence (Q09472 whole entry): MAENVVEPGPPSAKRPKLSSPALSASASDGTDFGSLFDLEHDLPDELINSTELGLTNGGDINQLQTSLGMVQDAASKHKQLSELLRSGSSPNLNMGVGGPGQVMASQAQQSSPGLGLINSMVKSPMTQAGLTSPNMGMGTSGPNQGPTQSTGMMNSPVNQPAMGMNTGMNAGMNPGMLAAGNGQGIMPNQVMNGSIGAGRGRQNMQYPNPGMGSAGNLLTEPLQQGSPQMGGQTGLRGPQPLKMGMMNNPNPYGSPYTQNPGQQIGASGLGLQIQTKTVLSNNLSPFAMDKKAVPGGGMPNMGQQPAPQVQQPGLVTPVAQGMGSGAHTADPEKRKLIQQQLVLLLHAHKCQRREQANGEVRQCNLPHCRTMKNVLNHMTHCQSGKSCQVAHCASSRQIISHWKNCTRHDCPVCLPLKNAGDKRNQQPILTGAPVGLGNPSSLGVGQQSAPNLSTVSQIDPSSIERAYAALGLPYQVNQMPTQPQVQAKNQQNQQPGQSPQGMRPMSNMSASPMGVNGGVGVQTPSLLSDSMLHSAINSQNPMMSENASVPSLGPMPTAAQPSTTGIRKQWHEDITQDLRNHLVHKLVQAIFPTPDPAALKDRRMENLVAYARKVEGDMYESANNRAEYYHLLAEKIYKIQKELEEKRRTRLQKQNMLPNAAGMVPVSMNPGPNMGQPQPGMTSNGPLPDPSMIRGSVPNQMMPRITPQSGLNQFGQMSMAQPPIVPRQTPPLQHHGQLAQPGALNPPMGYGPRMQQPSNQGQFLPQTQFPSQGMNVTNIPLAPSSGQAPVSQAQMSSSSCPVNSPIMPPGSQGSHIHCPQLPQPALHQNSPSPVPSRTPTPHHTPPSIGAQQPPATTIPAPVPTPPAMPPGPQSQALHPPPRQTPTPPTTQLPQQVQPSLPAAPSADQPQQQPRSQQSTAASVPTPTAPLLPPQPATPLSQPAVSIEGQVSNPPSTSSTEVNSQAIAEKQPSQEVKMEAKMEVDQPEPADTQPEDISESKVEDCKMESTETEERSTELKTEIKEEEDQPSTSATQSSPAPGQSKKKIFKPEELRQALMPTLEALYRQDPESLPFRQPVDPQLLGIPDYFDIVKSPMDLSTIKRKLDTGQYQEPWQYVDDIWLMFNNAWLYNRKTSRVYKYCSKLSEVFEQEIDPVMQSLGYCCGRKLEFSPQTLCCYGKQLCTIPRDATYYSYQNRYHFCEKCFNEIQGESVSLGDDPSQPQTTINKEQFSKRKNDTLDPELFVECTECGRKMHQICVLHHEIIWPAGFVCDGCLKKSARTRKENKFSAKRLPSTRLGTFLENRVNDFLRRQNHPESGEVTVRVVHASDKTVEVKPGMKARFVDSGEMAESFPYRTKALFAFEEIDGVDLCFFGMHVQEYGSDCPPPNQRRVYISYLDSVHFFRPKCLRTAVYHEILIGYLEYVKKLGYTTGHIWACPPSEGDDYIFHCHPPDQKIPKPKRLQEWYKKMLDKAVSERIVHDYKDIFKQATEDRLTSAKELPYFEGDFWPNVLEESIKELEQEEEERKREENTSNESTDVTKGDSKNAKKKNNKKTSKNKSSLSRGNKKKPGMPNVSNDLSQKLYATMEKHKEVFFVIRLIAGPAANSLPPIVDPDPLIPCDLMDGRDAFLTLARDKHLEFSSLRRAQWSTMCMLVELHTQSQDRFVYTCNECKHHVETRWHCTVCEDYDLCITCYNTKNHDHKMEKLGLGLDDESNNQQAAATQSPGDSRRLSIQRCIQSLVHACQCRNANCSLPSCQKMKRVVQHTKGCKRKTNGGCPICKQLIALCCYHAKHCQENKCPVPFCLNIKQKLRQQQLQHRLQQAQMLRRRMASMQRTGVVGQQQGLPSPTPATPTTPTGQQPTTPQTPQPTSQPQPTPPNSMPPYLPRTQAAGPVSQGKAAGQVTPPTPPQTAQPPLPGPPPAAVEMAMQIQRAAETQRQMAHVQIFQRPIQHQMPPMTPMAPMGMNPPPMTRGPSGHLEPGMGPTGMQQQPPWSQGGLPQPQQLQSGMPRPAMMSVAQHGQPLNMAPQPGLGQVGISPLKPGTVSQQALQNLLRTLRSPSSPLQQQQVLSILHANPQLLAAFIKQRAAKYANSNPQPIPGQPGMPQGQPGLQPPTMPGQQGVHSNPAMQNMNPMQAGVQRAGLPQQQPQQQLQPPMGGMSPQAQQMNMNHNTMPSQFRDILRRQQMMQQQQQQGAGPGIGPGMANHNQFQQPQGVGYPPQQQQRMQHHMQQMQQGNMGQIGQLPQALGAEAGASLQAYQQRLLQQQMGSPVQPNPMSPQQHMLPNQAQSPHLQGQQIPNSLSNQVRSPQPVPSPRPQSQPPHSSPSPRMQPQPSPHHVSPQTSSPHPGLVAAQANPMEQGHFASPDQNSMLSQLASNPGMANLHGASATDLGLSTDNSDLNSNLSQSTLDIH
Hypoxia-inducible factor 1-alpha, sequence (Q16665 whole entry): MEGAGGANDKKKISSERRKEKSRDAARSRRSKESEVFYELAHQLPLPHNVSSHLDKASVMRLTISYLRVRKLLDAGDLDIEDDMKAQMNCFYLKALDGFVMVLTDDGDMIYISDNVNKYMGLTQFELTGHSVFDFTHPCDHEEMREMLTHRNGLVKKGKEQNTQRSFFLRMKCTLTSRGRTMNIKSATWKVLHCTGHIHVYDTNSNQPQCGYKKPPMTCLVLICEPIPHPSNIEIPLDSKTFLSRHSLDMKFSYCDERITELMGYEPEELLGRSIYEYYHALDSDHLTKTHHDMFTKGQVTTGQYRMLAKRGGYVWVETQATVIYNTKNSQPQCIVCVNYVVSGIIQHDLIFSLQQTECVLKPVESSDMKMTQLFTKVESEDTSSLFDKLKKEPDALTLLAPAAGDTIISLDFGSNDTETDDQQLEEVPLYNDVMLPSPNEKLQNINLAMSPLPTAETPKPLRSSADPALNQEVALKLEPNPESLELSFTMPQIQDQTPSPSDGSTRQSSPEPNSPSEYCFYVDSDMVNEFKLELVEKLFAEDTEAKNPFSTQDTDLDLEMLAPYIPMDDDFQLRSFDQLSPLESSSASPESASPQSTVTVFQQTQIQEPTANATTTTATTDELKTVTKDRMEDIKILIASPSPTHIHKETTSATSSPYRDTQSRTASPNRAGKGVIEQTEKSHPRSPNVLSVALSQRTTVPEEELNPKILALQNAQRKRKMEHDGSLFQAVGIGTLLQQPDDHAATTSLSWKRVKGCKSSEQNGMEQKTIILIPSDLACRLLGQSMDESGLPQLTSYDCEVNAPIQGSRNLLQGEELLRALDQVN

Question: Which IC50 [1] does the source give for `CC(C)Cc1cc(CNC(=O)N2CCN(CC(=O)Nc3ccccc3Cl)CC2)nn1-c1ccccc1.Cl` here?
Answer: The IC50 was 107000 nM.

Question: With `COc1cc([C@@H]2c3cc4c(cc3[C@@H](Nc3ccc([N+](=O)[O-])cc3)[C@H]3COC(=O)[C@H]23)OCO4)cc(OC)c1O` as the molecule, how does the pIC50 [2] read?
Answer: Its pIC50 is 8.30 to 9.00.

Question: With `CC(C)C[C@H](NC(=O)[C@H](C)NC(=O)[C@H](CCCNC(=N)N)NC(=O)[C@H](C)N1CC/C=C\CC(=O)N[C@@H](CCC(=O)O)C(=O)N[C@@H](CC(C)C)C1=O)C(=O)N[C@@H](CC(=O)O)C(=O)N[C@@H](CCC(N)=O)C(N)=O` as the molecule, how does the pKd [3] read?
Answer: Its pKd is 6.16.

Question: For `CN1C(=O)[C@]2(Cc3ccc(CCc4ccc(C[C@@]56SS[C@@](CO)(C(=O)N5C)N(C)C6=O)cc4)cc3)SS[C@@]1(CO)C(=O)N2C`, which IC50 [4] is on record?
Answer: Its IC50 is 600 nM.

Question: Which IC50 [4] does the source give for `CN1C(=O)[C@]2(Cc3ccc(C[C@@]45SS[C@@](CO)(C(=O)N4C)N(C)C5=O)cc3)SS[C@@]1(CO)C(=O)N2C` here?
Answer: The IC50 was 1500 nM.

Question: With `CN1C(=O)[C@@]23C[C@]4([C@]56C[C@@]78SS[C@@](CO)(C(=O)N7[C@H]5Nc5ccccc56)N(C)C8=O)c5ccccc5N[C@@H]4N2C(=O)[C@]1(CO)SS3` [CHAETOCIN] as the molecule, how does the pIC50 [5] read?
Answer: Its pIC50 is 7.00.
